Test results published in patent publication US7465725B2, “Pyrimidine compounds” (Synta Pharmaceuticals Corp., priority 2001, dated 2008).

Assays:
[1] = test system: CD4+ CD45Rbhigh T cell-reconstituted colitis; test: CD4+ CD45Rbhigh T cell-reconstituted SCID colitis model mice; format: in vivo, C.B-17 SCID mice
Protocol: Treatment of Crohn's disease in CD4^+ CD45Rb^high T cell-reconstituted SCID colitis model mice: Spleen cells were prepared from normal female BALB/c mice. For cell purification, the following anti-mouse antibodies were used to label non-CD4^+ T cells: B220 (RA3-6B2), CD11b (M1/70), and CD8α (53-6.72). All antibodies were obtained from BioSource (Camarillo, Calif.). M450 anti-rat IgG-coated magnetic beads (Dynal, Oslo, Norway) were used to bind the antibodies and negative selection was accomplished using an MPC-1 magnetic concentrator. The enriched CD4^+ cells were then labeled for cell sorting with FITC-conjugated CD45RB (16A, Pharmingen, San Diego, Calif.) and PE-conjugated CD4 (CT-CD4, Caltag, Burlingame, Calif.). CD4^+ CD45Rb^high cells were operationally defined as the upper 40% of CD45Rb-staining CD4^+ cells and sorted under sterile conditions by flow cytometry. Harvested cells were resuspended at 4×10^6/mL in PBS and injected 100 μL intraperitoneally into female C.B-17 SCID mice. Pyrimidine compounds of this invention (e.g., Compound 12) and/or vehicle was orally administered once a day, 5 days per week, starting the day following the transfer. The transplanted SCID mice were weighed weekly and their clinical condition was monitored. Colon tissue samples were fixed in 10% buffered formalin and embedded in paraffin. Sections (4 μm) collected from ascending, transverse, and descending colon were cut and stained with hematoxylin and eosin. The severity of colitis was determined based on histological examination of the distal colon sections, whereby the extent of colonic inflammation was graded on a scale of 0-3 in each of four criteria: crypt elongation, cell infiltration, depletion of goblet cells, and the number of crypt abscesses. LP lymphocytes were isolated from freshly obtained colonic specimens. After removal of […] patches, the colon was washed in Ca/Mg-free HBSS, cut into 0.5 cm pieces and incubated twice in HBSS containing EDTA (0.75 mM), DTT (1 mM), and antibiotics (amphotericin 2.5 μg/mL, gentamicin 50 μg/mL from Sigma) at 37° C. for 15 min. Next, the tissue was-digested further in RPMI containing 0.5 mg/mL collagenase D, 0.01 mg/mL DNase I (Boehringer Manheim), and antibiotics at 37° C. LP cells were then layered on a 40-100% Percoll gradient (Pharmacia, Uppsala, Sweden), and lymphocyte-enriched populations were isolated from the cells at the 40-100% interface. To measure cytokine production, 48-well plates were coated with 10 μg/mL murine anti-CD3ε antibody (145-2C11) in carbonate buffer (PH 9.6) overnight at 4° C. […] Murine IFNγ was measured using an ELISA kit from Endogen (Cambridge, Mass.), according to the manufacturer's instructions.

adjuvant arthritis = test: Treatment of adjuvant arthritis in rats; format: in vivo, female Lewis rats; details: oral, once a day for 12 days, dose-dependent
[2] = test system: DNBS-induced distal colitis; test: Dinitrobenzene sulfonic acid-induced inflammatory bowel syndrome model rats; format: in vivo, Wistar derived rats; details: oral, 24 and 2 h before DNBS, then daily for 5 days; relative to vehicle+DNBS net increase
Protocol: Treatment of Crohn's disease in dinitrobenzene suifonic acid-induced inflammatory bowel syndrome model rats: Wistar derived male or female rats weighing 200±20 g and fasted for 24 hours were used. Distal colitis was induced by intra-colonic instillation of 2,4-dinitrobenzene sulfonic acid (DNBS, 25 mg in 0.5 mL ethanol 30%) after which air (2 mL) was gently injected through the cannula to ensure that the solution remained in the colon. A test compound and/or vehicle was administered orally 24 and 2 hours before DNBS instillation and then daily for 5 days. One control group was similarly treated with vehicle alone while the other is treated with vehicle plus DNBS. The animals were sacrificed 24 hours after the final dose of test compound administration and each colon was removed and weighed. Colon-to-body weight ratio was then calculated for each animal according to the formula: Colon (g)/BW×100. The “Net” increase in ratio of Vehicle-control+DNBS group relative to Vehicle-control group was used as a base for comparison with test substance treated groups and expressed as “% Deduction.” Pyriridine compounds of this invention (e.g., Compound 12) reproducibly had about 30% deduction. A 30% or more reduction in colon-to-body weight ratio, relative to the vehicle treated eontrol group, was considered significant.

Cc1cccc(C=NNc2cc(N3CCOCC3)nc(OCCc3ccccn3)n2)c1 [Compound 12, N-(3-methyl-benzylidene)-N′-[6-morpholin-4-yl-2-(2-pyridin-2-yl-ethoxy)-pyrimidin-4-yl]-hydrazine]
IFNγ production by LP cells ([1]; ex vivo LP cells from treated mice, anti-CD3 and anti-CD28 antibody, 48 h, ELISA): greatly diminished the production
colonic inflammation (histological analysis), suppressive effect ([1]; oral, dose of 10 mg/kg): substantial reduction
colonic inflammation (histological analysis) ([1]; oral, once a day, 5 days per week, versus vehicle control): reduced colonic inflammation
colon-to-body weight ratio ([1]; oral, consistent with histological score): attenuation
development of polyarthritis (adjuvant arthritis): delayed the development of polyarthritis
arthritic score (adjuvant arthritis; repeated four times): reduced the arthritic score
% Deduction (colon-to-body weight ratio) [2]: about 30%
